Data taken from publication PMC7370100, “In Vitro Assessment of the Genotoxic Hazard of Novel Hydroxamic Acid- and Benzamide-Type Histone Deacetylase Inhibitors (HDACi)” (International Journal of Molecular Sciences, 2020).
Like-named read-outs stand apart in the source and are kept apart here.

Assays:
[1] = test system: SH-SY5Y neuroblastoma cells; assay: Neutral red assay (cytotoxicity), SH-SY5Y cells; type: cell-based, human
Protocol: (§1) V79 hamster lung cells, which are recommended in the OECD toxicology guidelines for hazard identification (i.e., cytotoxicity and genotoxicity) of chemicals, were purchased from the German Collection of Microorganisms and Cell Cultures (DSMZ, Braunschweig, Germany). They were cultured in Dulbecco´s modified Eagle medium and Ham´s F12 medium (DMEM/F12) (PromoCell, Heidelberg, Germany) containing 10% fetal calf serum at 37 °C in a humidified atmosphere containing 5% CO2. VC8 hamster cells were defective in DNA double-strand break (DSB) repair by homologous recombination (HR) due to the lack of functional BRCA2 protein [69, 70]. VC8 cells were provided by B. Kaina (Institute of Toxicology, Mainz, Germany). Nucleotide excision repair defective XPA and CSB deficient cells were also provided by B. Kaina and were described before. They were grown in DMEM containing 10% fetal calf serum. Human neuroblastoma cells (IMR-32 and SH-SY5Y) were purchased from the German Collection of Microorganisms and Cell Cultures (DSMZ, Braunschweig, Germany) and were used as a model of malignant cells. They were grown in DMEM or RPMI (Roswell park memorial institute) medium, respectively, containing 10% fetal calf serum. If not stated otherwise, HDACi were added to the exponentially growing cells and analyses were performed 6 h to 72 h later.
(§2) Cell viability was determined using the Alamar blue assay, which reflected the mitochondrial activity. Viable cells were characterized by an effective mitochondrial metabolization of the non-fluorescent dye resazurin (Sigma, Steinheim, Germany) to fluorescent resorufin (excitation: 535 nm, emission: 590 nm). Relative viability in the untreated control was set to 100%. In addition, the Neutral red assay, which measures the integrity of lysosomal membranes, was used to monitor cytotoxicity. To this end, cells were incubated with the Neutral red solution (0.01%) in an atmosphere containing 5% CO2 for 90 min before they were fixed (1% formaldehyde/1% CaCl2). Afterwards, the Neutral red that was taken up by the cells was extracted (50% ethanol/1% of acetic acid, 15 min at room temperature (RT)) and absorbance (540 nm) was measured. If not stated otherwise, data are shown as the mean ± standard deviation (SD) of two to three independent experiments each performed in quadruplicate. Approximate IC50 (~IC50, see Supplementary Table S1) were calculated from the corresponding dose-response curves.

[2] = test system: IMR-32 neuroblastoma cells; assay: Neutral red assay (cytotoxicity), IMR-32 cells; type: cell-based, human
Protocol: as §1, §2

V79 cells [3] = assay: Nuclear γH2AX foci and pan-staining (immunocytochemistry); type: cell-based, hamster; details: for > 5 < 30 Foci [%] / Pan-Stained [%] / ≤ 5 Foci [%] (cells with γH2AX foci) / ≥ 30 Foci [%] / formation of nuclear γH2AX foci: 24 h; for > 5 < 30 Foci [%] / Pan-Stained [%] / ≤ 5 Foci [%] (cells with γH2AX foci) / ≥ 30 Foci [%] / gH2AX Foci / gH2AX Pan-Stain: V79; for formation of nuclear γH2AX foci: V79, in words; for gH2AX Foci / gH2AX Pan-Stain: summary grade; for gH2AX Foci: key: −: no effect; 0: weak effect; +: moderate effect; ++: strong effect; +++: very strong effect as compared to untreated controls; for gH2AX Pan-Stain: key: −: no effect; 0: weak effect; +: moderate effect; ++: strong effect; +++: very strong effect as compared to untreated controls
Protocol: The frequency of nuclear foci formed by S139 phosphorylated H2AX (γH2AX foci), which is a surrogate marker of DNA damage, especially DNA double-strand breaks (DSBs), was assayed by immunocytochemistry-based analysis. […] The appearance of nuclear 53BP1 foci, which is another marker of DSBs, was also determined by immunocytochemistry. Cells were fixed with 4% formaldehyde in phosphate-buffered saline (PBS) (MERCK, Darmstadt, Germany) (15 min, RT) followed by incubation with ice-cold methanol (≥20 min, −20 °C). After blocking (1 h, RT, blocking solution: 5% BSA (MERCK, Darmstadt, Germany) in PBS/0.3% Triton X-100 (Sigma, Steinheim, Germany)), incubation with γH2AX antibody and 53BP1 antibody was performed (1:500, overnight, 4 °C). After incubation with the secondary fluorescence-labeled antibody (1:500, 1 h, RT, in the dark), cells were mounted in Vectashield (Vector Laboratories (Burlingame, CA, USA)) containing DAPI. The number of nuclear γH2AX and 53BP1 foci was scored (Olympus BX43 fluorescence microscope). Only nuclei with distinct foci were evaluated and γH2AX pan-stained nuclei were excluded from the foci analyses. Data are shown as the mean ± SEM of three independent experiments with ≥50 nuclei analyzed per experimental condition.

V79 cells [4] = assay: DNA damage response (DDR) activation by Western blot; type: cell-based, hamster; details: for activation of DDR factors (γH2AX, p-p53, p-Chk1, p-Chk2, p-Kap1 protein levels): V79, Western blot, in words; for DDR Activation: summary grade, V79; for DDR Activation: key: −: no effect; 0: weak effect; +: moderate effect; ++: strong effect; +++: very strong effect as compared to untreated controls
Protocol: The activation of the DDR was investigated by Western blot analysis. To this end, total cell extracts were obtained by lysing an equal number of cells in Roti®-Load buffer (Carl Roth GmbH (Karlsruhe, Germany)) (5 min, RT). After sonication (EpiShear™ Probe sonicator, Active Motif, La Hulpe, Belgium), proteins were denatured by heating (5 min, 95 °C) and separated by SDS-PAGE (6% or 12.5% gel). Proteins were transferred onto a nitrocellulose membrane (GE Healthcare, Little Chalfont, UK) via the Protean Mini Cell System (BioRad (München, Germany)). The membrane was blocked with 5% non-fat milk in TBS/0.1% Tween 20 (MERCK, Darmstadt, Germany) (2 h, RT) and incubated with the corresponding primary antibody (1:1000, overnight, 4 °C). After washing with TBS/0.1% Tween 20, the secondary (peroxidase-conjugated) antibody was added (1:2000, 2 h, RT). The Fusion FX7 imaging system (PeqLab, Erlangen, Germany) was used for visualization of the bound antibodies. The following primary antibodies were used: Anti-Ser15 phosphorylated protein 53 (p-p53), anti-Talin-1, anti-Ser 345 checkpoint kinase 1 (p-Chk1), anti-cleaved caspase 3 and 7 (Cell Signaling, Beverly, MA, USA), anti-Ser824 phosphorylated Krüppel-associated box domain (KRAB)-associated protein-1 (p-Kap1), anti-Ser1981 phosphorylated ataxia telangiectasia mutated (pATM) and anti-Thr68 phosphorylated checkpoint kinase-2 (p-Chk2) (both Abcam, Cambridge, MA, USA), anti-Ser139 phosphorylated histone H2AX (γH2AX, Millipore, Billerica, MA, USA), and anti-β-actin (Santa Cruz, CA, USA). As secondary antibodies, horseradish peroxidase-conjugated secondary antibodies goat anti-mouse IgG and mouse anti-rabbit IgG (Rockland, Limerick, PA, USA) (2 h, RT) were used.

V79 cells [5] = assay: Micronucleus assay; details: for micronucleus assay outcome at 50 μM (printed in Figure 2A) / Micronucl. Assay: V79; for Micronucl. Assay: summary grade
Protocol: We analyzed the frequency of micronuclei in binucleated cells, as described [86]. Briefly, logarithmically growing cells were treated with cytochalasin B (3 µg/m) for 24 h. After fixation with formaldehyde (3.7% in PBS, 20 min, RT) and washing with PBS, cells were permeabilized using precooled methanol (20 min, −20 °C.) After washing with PBS and rinsing the cell layer with PBS containing Triton X100 (PBST; 0.3% Triton X100 in PBS), DNA was stained by DAPI (4´,6-diamino-2-phenylindole) and the number of micronuclei was evaluated by fluorescence microscopy. Data shown are the mean ± SEM of three independent experiments with ≥1000 binucleated cells evaluated per experimental condition.

[6] = 24 h, approximate IC50, read-out: IC50 - 24 h Treatment, SH-SY5Y
[7] = 72 h, approximate IC50, read-out: IC50 - 72 h Treatment, SH-SY5Y
[8] = 24 h, approximate IC50, read-out: IC50 - 24 h Treatment, IMR-32
[9] = 72 h, approximate IC50, read-out: IC50 - 72 h Treatment, IMR-32

> 5 < 30 Foci [%] (V79 cells [3]; 2 µM)	Pan-Stained [%] (V79 cells [3]; 2 µM)	> 5 < 30 Foci [%] (V79 cells [3]; 10 µM)	Pan-Stained [%] (V79 cells [3]; 10 µM)	≤ 5 Foci [%] (cells with γH2AX foci) (V79 cells [3]; 10 µM)	≥ 30 Foci [%] (V79 cells [3]; 10 µM)	> 5 < 30 Foci [%] (V79 cells [3]; 50 µM)	Pan-Stained [%] (V79 cells [3]; 50 µM)	≤ 5 Foci [%] (cells with γH2AX foci) (V79 cells [3]; 50 µM)	≥ 30 Foci [%] (V79 cells [3]; 50 µM)	formation of nuclear γH2AX foci (V79 cells [3])	gH2AX Foci (V79 cells [3])	gH2AX Pan-Stain (V79 cells [3])	SMILES	IC50 [1, 6]	IC50 [1, 7]	IC50 [2, 8]	IC50 [2, 9]	activation of DDR factors (γH2AX, p-p53, p-Chk1, p-Chk2, p-Kap1 protein levels) (V79 cells [4])	DDR Activation (V79 cells [4])	Micronucl. Assay (V79 cells [5])	also measured
		43.6%	0.4%	45.2%	10.8%	39.4%	3.2%	45.3%	12.2%	relatively low number of γH2AX foci	+	+	Nc1ccccc1NC(=O)c1ccc(CNC(=O)OCc2cccnc2)cc1 [Entinostat, entinostat, reference compound]					substantial increase in γH2AX levels but no, or only a minor, increase in p-p53 and p-Chk1/p-Chk2 levels	+		IC50 ([1]; Homo sapiens, SH-SY5Y, 24 h, approximate IC50, read-out: IC50 - 24 h Treatment, SH-SY5Y): > 50 µM; IC50 ([1]; Homo sapiens, SH-SY5Y, 72 h, approximate IC50, read-out: IC50 - 72 h Treatment, SH-SY5Y): 9 µM; IC50 ([2]; Homo sapiens, IMR-32, 24 h, approximate IC50, read-out: IC50 - 24 h Treatment, IMR-32): > 50000 nM; IC50 ([2]; Homo sapiens, IMR-32, 72 h, approximate IC50, read-out: IC50 - 72 h Treatment, IMR-32): 3000 nM; > 5 < 30 Foci [%] (V79 cells [3]; 100 µM): 47.2%; Pan-Stained [%] (V79 cells [3]; 100 µM): 4.6%; ≤ 5 Foci [%] (cells with γH2AX foci) (V79 cells [3]; 100 µM): 41.7%; ≥ 30 Foci [%] (V79 cells [3]; 100 µM): 6.5%
		49.9%	0.0%	49.6%	0.6%	41.5%	0.0%	58.6%	0.0%	relatively low number of γH2AX foci	+	0	Nc1ccc(F)cc1NC(=O)c1ccc(CONC(=O)C=Cc2cccnc2)cc1 [MPK77]	> 50 µM	23 µM	9000 nM	3000 nM	failed to provoke a clear increase in γH2AX protein level	−	+	> 5 < 30 Foci [%] (V79 cells [3]; 100 µM): 47.9%; Pan-Stained [%] (V79 cells [3]; 100 µM): 10.2%; ≤ 5 Foci [%] (cells with γH2AX foci) (V79 cells [3]; 100 µM): 35.5%; ≥ 30 Foci [%] (V79 cells [3]; 100 µM): 6.5%; frequency of micronuclei (V79 cells [5]; 24 h, V79, in words): slight but significant increase in the frequency of micronuclei
54.7%	0.0%	18.5%	3.2%	75.9%	2.4%	34.2%	26.7%	23.6%	15.6%		+	++	O=C(CCCCCCC(=O)Nc1ccccc1)NO [Vorinostat, vorinostat, reference compound]					substantial increase in γH2AX levels but no, or only a minor, increase in p-p53 and p-Chk1/p-Chk2 levels	+	+	≤ 5 Foci [%] (cells with γH2AX foci) (V79 cells [3]; 2 µM): 39.3%; ≥ 30 Foci [%] (V79 cells [3]; 2 µM): 6.0%; micronucleus assay outcome at 50 μM (printed in Figure 2A) (V79 cells [5]): Cytotoxic

SMILES	> 5 < 30 Foci [%] (V79 cells [3]; 2 µM)	Pan-Stained [%] (V79 cells [3]; 2 µM)	> 5 < 30 Foci [%] (V79 cells [3]; 10 µM)	Pan-Stained [%] (V79 cells [3]; 10 µM)	≤ 5 Foci [%] (cells with γH2AX foci) (V79 cells [3]; 10 µM)	≥ 30 Foci [%] (V79 cells [3]; 10 µM)	> 5 < 30 Foci [%] (V79 cells [3]; 50 µM)	Pan-Stained [%] (V79 cells [3]; 50 µM)	≤ 5 Foci [%] (cells with γH2AX foci) (V79 cells [3]; 50 µM)	≥ 30 Foci [%] (V79 cells [3]; 50 µM)	formation of nuclear γH2AX foci (V79 cells [3])	gH2AX Foci (V79 cells [3])	gH2AX Pan-Stain (V79 cells [3])	IC50 [1, 6]	IC50 [1, 7]	IC50 [2, 8]	IC50 [2, 9]	activation of DDR factors (γH2AX, p-p53, p-Chk1, p-Chk2, p-Kap1 protein levels) (V79 cells [4])	DDR Activation (V79 cells [4])	Micronucl. Assay (V79 cells [5])	also measured
CN(C)c1ccc(C(=O)N(CC(=O)NCc2ccccc2)Cc2ccc(C(=O)NO)cc2)cc1 [DDK137]	38.5%	0.0%	40.1%	0.0%	56.4%	3.5%	36.8%	14.1%	31.3%	17.8%	stimulate the formation of γH2AX foci only at a high dose of 50 µM	+	+	> 50 µM	1 µM	10000 nM	300 nM	substantial increase in γH2AX levels but no, or only a minor, increase in p-p53 and p-Chk1/p-Chk2 levels	+	+	≤ 5 Foci [%] (cells with γH2AX foci) (V79 cells [3]; 2 µM): 60.8%; ≥ 30 Foci [%] (V79 cells [3]; 2 µM): 0.7%; micronucleus assay outcome at 50 μM (printed in Figure 2A) (V79 cells [5]): Cytotoxic
